Tested on: SARS-CoV-2
Assay: Antiviral activity against SARS-CoV-2 Delta (B.1.617.2) infected in African green monkey Vero E6 cells assessed as reduction in viral replication treated for 1 hr followed by replacement with fresh medium containing compounds measured after 23 hrs in presence of CP-100356 by qRT-PCR analysis
Type: functional, organism-based
Conditions: Severe acute respiratory syndrome coronavirus 2, Delta (B.1.617.2), Vero C1008

CC(C)(C)[C@H](NC(=O)C(F)(F)F)C(=O)N1CC2(C[C@H]1C(=O)N[C@H](C#N)C[C@@H]1CCNC1=O)SCCS2 gave an EC50 of 34 nM.

Reference: ChEMBL document CHEMBL5375961, “Design, Synthesis, and Biological Evaluation of Trisubstituted Piperazine Derivatives as Noncovalent Severe Acute Respiratory Syndrome Coronavirus 2 Main Protease Inhibitors with Improved Antiviral Activity and Favorable Druggability” (J Med Chem, 2023)
